Here are results for one molecule from publication PMC7465190, “Inhibition of Tyrosyl-DNA Phosphodiesterase 1 by Lipophilic Pyrimidine Nucleosides” (Molecules, 2020).

“Also recorded” adds a separate entry of the source.

Series [1] relates to HeLa cells. The experiment in a line: Cytotoxicity in combination with topotecan, EZ4U assay. It counts as cell-based. As to the method: To study the influence of the inhibitors on the cytotoxic effect of topotecan, the latter from the manufacturer ACTAVIS GROUP PTC ehf. was used. To select a nontoxic but effective concentration of the nucleoside compounds, we investigated their cytotoxicity in the presence of 2 μM topotecan (concentration causing the death of half the HeLa cells). Three independent cytotoxicity assays were performed with each inhibitor in combination with topotecan. For the cells treated with a nucleoside derivative alone, values in the control wells treated with 1% DMSO were set to 100% viability. For the cells treated with a combination of the drugs, the viability of cells treated only with topotecan was set to 100%.
(§1) Intrinsic toxicity of the compounds to human cell line HeLa (cervical cancer) was examined by means of the EZ4U Cell Proliferation and Cytotoxicity Assay (Biomedica, Wien, Austria), according to the manufacturer’s protocols. The cells were grown in Iscove’s modified Dulbecco’s medium (IMDM) with 40 μg/mL gentamicin, 50 IU/mL penicillin, 50 μg/mL streptomycin (MP Biomedicals), and 10% of fetal bovine serum (Biolot) in a 5% CO2 atmosphere. After formation of a 30–50%-confluent monolayer, one of the tested compounds was added to the medium (the volume of the added reagents was 1/100 of the total volume of the culture medium, and the amount of DMSO was 1% of the final volume), and the cell culture was monitored for 3 days. Control cells were grown in the presence of 1% DMSO. To assess the influence of the inhibitors on the cytotoxic effect of topotecan, the latter from the manufacturer ACTAVIS GROUP PTC ehf. (Bucharest, Romania) was used. First of all, 50% cytotoxic concentrations of topotecan and of each inhibitor were determined to attain a defined single-agent effect. Second, three independent tests were performed with each inhibitor in combination with topotecan.

Series [2] addresses Tdp1 (Homo sapiens, UniProt Q9NUW8). The series can be described thus: Real-time detection of Tdp1 activity (fluorophore-quencher oligonucleotide biosensor). Format: biochemical. The conditions noted are these: 1.5 nM purified Tdp1, 50 nM biosensor, 26 °C, three independent experiments; read-out: IC50 (inhibition of Tdp-1). The text has this:
Previously, we designed a real-time oligonucleotide biosensor based on the capability of Tdp1 to remove fluorophore quenchers from the 3′ end of DNA [27]. The single-stranded substrate was a 16-mer oligonucleotide containing both a 5′-FAM fluorophore donor and a quenching 3′-BHQ moiety. When the quencher is removed by Tdp1, FAM fluorescence flares up and can be detected by a fluorimeter. Fluorescence intensity diminishes in the presence of an inhibitor; curves of the obtained Tdp1 activity versus inhibitor concentration can be used to calculate IC50 values. We also investigated some structurally related compounds obtained by previously developed methods; these compounds feature a modification either in a carbohydrate or heterocyclic moiety (Table 1).
This procedure was reported in our previous work. The approach consists of fluorescence intensity measurement in a reaction of quencher removal from a fluorophore quencher–coupled DNA oligonucleotide catalyzed by Tdp1 in the presence of an inhibitor (the control samples contained 1% of DMSO). The reaction mixtures (200 μL) contained Tdp1 buffer (50 mM Tris-HCl pH 8.0, 50 mM NaCl, and 7 mM β-mercaptoethanol), 50 nM biosensor, an inhibitor being tested, and purified Tdp1 (1.5 nM). The biosensor was a single-stranded oligonucleotide (5′-[FAM] AAC GTC AGGGTC TTC C [BHQ]-3′) containing a fluorophore at the 5′ end (5,6-FAM) and Black Hole Quencher 1 (BHQ) at the 3′ end and was synthesized in the Laboratory of Biomedical Chemistry at the Institute of Chemical Biology and Fundamental Medicine (Novosibirsk, Russia).
The reactions were incubated at a constant temperature of 26 °C on a POLARstar OPTIMA fluorimeter (BMG LABTECH, GmbH, Ortenberg, Germany) to measure fluorescence every 55 s (ex. 485/em. 520 nm) during the linear phase (here, data from minute 0 to minute 8). The values of IC50 were determined using a six-point concentration response curve in three independent experiments and were calculated using MARS Data Analysis 2.0 (BMG LABTECH).

Series [3] can be described thus: Intrinsic cytotoxicity, EZ4U Cell Proliferation and Cytotoxicity Assay. Format: cell-based, human. The following applies: human, HeLa cells (cervical cancer), 3 days, EZ4U assay. As to the method: (§2) First, we assessed the toxicity of the compounds to HeLa cells (cervical cancer cells). Analysis of the intrinsic cytotoxicity of the compounds was examined in the EZ4U Cell Proliferation and Cytotoxicity Assay (Biomedica, Austria). The tested compounds were added to the medium (the volume of added reagents was 1/100 of the total volume of the culture medium, and the amount of DMSO (dimethyl sulfoxide) was 1% of the final volume), and the cell culture was monitored for 3 days. Control cells were grown in the presence of 1% DMSO. Intrinsic cytotoxicity of the compounds was either absent or negligible at concentrations up to 100 μM (>80% live cells) with the exception of compounds 2b, 2c, and 7, in the presence of which, at a concentration of 100 μM, 30–45% of the cells died (Table 1 and Figure 1).
as §1

Series [4] relates to HeLa cells. Described as above. The following applies: compound at 100 μM, 3 days. Format: cell-based, human. As to the method:
as §2, §1

Chain of Tdp1 (Q9NUW8 whole entry): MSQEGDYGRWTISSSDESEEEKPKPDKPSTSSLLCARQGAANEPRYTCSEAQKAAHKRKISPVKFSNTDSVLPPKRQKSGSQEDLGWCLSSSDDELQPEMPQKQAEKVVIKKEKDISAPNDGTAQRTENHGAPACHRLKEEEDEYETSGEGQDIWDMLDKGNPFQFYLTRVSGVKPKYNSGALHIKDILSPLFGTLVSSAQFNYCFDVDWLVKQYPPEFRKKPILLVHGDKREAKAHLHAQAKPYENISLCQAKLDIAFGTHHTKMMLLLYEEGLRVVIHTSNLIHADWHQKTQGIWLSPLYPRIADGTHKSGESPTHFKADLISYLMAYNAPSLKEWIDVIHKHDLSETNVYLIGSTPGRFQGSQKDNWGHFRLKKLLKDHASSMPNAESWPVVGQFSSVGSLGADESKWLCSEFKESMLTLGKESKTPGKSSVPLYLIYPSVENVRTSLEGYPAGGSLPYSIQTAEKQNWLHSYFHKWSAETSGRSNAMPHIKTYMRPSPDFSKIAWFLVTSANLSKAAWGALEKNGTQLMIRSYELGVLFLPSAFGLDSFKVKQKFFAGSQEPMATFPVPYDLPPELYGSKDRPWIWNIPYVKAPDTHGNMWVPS

Consider `COc1ccn([C@@H]2O[C@H](COC(=O)c3ccccc3)[C@@H](OC(=O)c3ccccc3)[C@H]2OC(=O)c2ccccc2)c(=O)n1` [Compound 7, 2′,3′,5′-Tri-O-benzoyl-2-oxo-4-metoxypyrimidine], for which, in series [1] (compound 1, 5, 20, 100 μM with 2 μM topotecan, Figure 2), the “change of cytotoxicity of the compound in the presence of topotecan (synergy)” value was “significantly (p = 0.05, Mann–Whitney U test) enhanced; also recorded: synergistic effect with topotecan; also recorded: enhanced the cytotoxicity”. In addition, the “sensitizing effect on cytotoxicity of topotecan” value in series [1] (compound at 20 μM, various doses of topotecan, Figure 3) was “doubled the cytotoxicity of topotecan; also recorded: doubling topotecan’s activity”. For the same molecule, the IC50 (commonly the midpoint of a concentration-inhibition curve) in series [2] stood at 2910 ± 10 nM. In addition, in series [3], the CC50 (commonly the concentration that lowers cell viability or growth by half) at 3 days was above 100000 nM. Also, the cells died in series [4] is reported as 30–45%.
